Test results from patent US20220289768A1, “HETEROCYCLIC COMPOUNDS AS STING MODULATORS” (BEIGENE, LTD., priority 2019, published 2022).

Experiments:
[1] = tested on: hSTING-R232 in THP1-Dual KI-hSTING-R232 Cells; test: STING cellular assay in THP1-Dual KI-hSTING-R232 cells (Lucia luciferase IRF reporter); type: cell-based; conditions: Homo sapiens, 24 h incubation, QUANTI-Luc readout, 1 nM-10 μM
Excerpt: (§1) STING Cellular Assay in THP1-Dual™ Cells
(§2) THP1-Dual™ cells were derived from the human THP-1 monocyte cell line by stable integration of two inducible reporter constructs. THP1-Dual™ cells feature the Lucia luciferase gene, a new secreted luciferase reporter gene, under the control of an ISG54 (interferon-stimulated gene) minimal promoter in conjunction with five interferon (IFN)-stimulated response elements. THP1-Dual™ cells also express a secreted embryonic alkaline phosphatase (SEAP) reporter gene driven by an IFN-β minimal promoter fused to five copies of the NF-κB consensus transcriptional response element and three copies of the c-Rel binding site. As a result, THP1-Dual™ cells allow the simultaneous study of the NF-κB pathway, by monitoring the activity of SEAP, and the interferon regulatory factor (IRF) pathway, by assessing the activity of Lucia luciferase. Both reporter proteins are readily measurable in the cell culture supernatant when using QUANTI-Blue™, a SEAP detection reagent, and QUANTI-Luc™, a Lucia luciferase detection reagent.
(§3) Distinct variants of human STING (hSTING) that affect CDN recognition and signal transduction have been identified: • R232 (R71-G230-R232-R293): the most prevalent in the human population (˜60%). Referred as the “wild-type” or 232R-RGR allele2. • HAQ (H71-A230-R232-Q293): contains three non-synonymous single nucleotide substitutions; R71H, G230A and R293Q. This allele, found in ˜20% of the population, is less sensitive to CDNs than the “wild-type” allele2.
(§4) Growth Medium: RPMI 1640, 2 mM L-glutamine, 25 mM HEPES, 10% heat-inactivated fetal bovine serum (30 min at 56° C.), 100 μg/mL Normocin™, Pen-Strep (100 U/mL-100 μg/mL)
(§5) 1. After cells have recovered (after at least one passage), maintain and subculture the cells in growth medium. (To maintain selection pressure, add 10 μg/mL of blasticidin and 100 μg/mL of Zeocin™ to the growth medium every other passage.) 2. Pass the cells every 3 days by inoculating 7×10^5 cells/ml.
(§6) Experimental Procedure • 1. Add 180 μL of cell suspension (˜100,000 cells) per well of a flat-bottom 96-well plate (costar 3599). • 2. Then compounds were added with serial dilutions over 10 points with a 1 nM-10 μM final concentration range in 0.10% DMSO/growth medium. • 3. Incubate the plate for 24 h at 37° C., 5% CO2. • 4. Set the BMG PHERAstar FSX instrument with the following parameters: 50 μL of injection, end-point measurement with a 4 second start time and 0.1 second reading time. • 5. Pipet 10 μL of THP1-Dual™ cell culture medium per well into a 96-well white opaque plate (Corning 3903). • 6. Add 50 μL of QUANTI-Luc assay solution to each well and gently tap the plate several times to mix. Proceed immediately with the measurement.

STING in THP1-Dual Cells = test: STING cellular assay in THP1-Dual cells (Lucia luciferase IRF reporter); type: cell-based; conditions: Homo sapiens, 24 h incubation, QUANTI-Luc readout, 1 nM-10 μM
Excerpt: as §1, §2, §3, §4, §5, §6

EC50 [1] [nM]	EC50 (STING in THP1-Dual Cells) [nM]	Structure (SMILES)
> 10000	> 10000	CCn1nc(C)cc1-c1nc(Cl)c2c3cc(C(N)=O)cc(OC)c3n(C/C=C/Cn3c4nc(-c5cc(C)nn5CC)nc(Cl)c4c4cc(C#N)cc(OCCCN5CCOCC5)c43)c2n1 [Example 1, (E)-4-chloro-9-(4-(4-chloro-6-cyano-2-(1-ethyl-3-methyl-1H-pyrazol-5-yl)-8-(3-morpholinopropoxy)-9H-pyrimido[4,5-b]indol-9-yl)but-2-en-1-yl)-2-(1-ethyl-3-methyl-1H-pyrazol-5-yl)-8-methoxy-9H-pyrimido[4,5-b]indole-6-carboxamide]
3230	> 10000	CCn1nc(C)cc1-c1nc(O)c2c3cc(C(N)=O)cc(OC)c3n(C/C=C/Cn3c4nc(-c5cc(C)nn5CC)nc(O)c4c4cc(C(N)=O)cc(OCCCN5CCOCC5)c43)c2n1 [Example 2, (E)-9-(4-(6-carbamoyl-2-(1-ethyl-3-methyl-1H-pyrazol-5-yl)-4-hydroxy-8-(3-morpholinopropoxy)-9H-pyrimido[4,5-b]indol-9-yl)but-2-en-1-yl)-2-(1-ethyl-3-methyl-1H-pyrazol-5-yl)-4-hydroxy-8-methoxy-9H-pyrimido[4,5-b]indole-6-carboxamide; trifluoroacetic acid]
3.7	182	CCn1nc(C)cc1-c1nc(Cl)c2c3cc(C(N)=O)cc(OC)c3n(C/C=C/Cn3c4nc(-c5cc(C)nn5CC)nc(Cl)c4c4cc(C(N)=O)cc(OCCCN5CCOCC5)c43)c2n1 [Example 3, (E)-9-(4-(6-carbamoyl-4-chloro-2-(1-ethyl-3-methyl-1H-pyrazol-5-yl)-8-(3-morpholinopropoxy)-9H-pyrimido[4,5-b]indol-9-yl)but-2-en-1-yl)-4-chloro-2-(1-ethyl-3-methyl-1H-pyrazol-5-yl)-8-methoxy-9H-pyrimido[4,5-b]indole-6-carboxamide; trifluoroacetic acid]
1.5	3.5	CCn1nc(C)cc1-c1ncc2c3cc(C(N)=O)cc(OC)c3n(C/C=C/Cn3c4nc(-c5cc(C)nn5CC)ncc4c4cc(C(N)=O)cc(OCCCN5CCOCC5)c43)c2n1 [Example 4, (E)-9-(4-(6-carbamoyl-2-(1-ethyl-3-methyl-1H-pyrazol-5-yl)-8-(3-morpholinopropoxy)-9H-pyrimido[4,5-b]indol-9-yl)but-2-en-1-yl)-2-(1-ethyl-3-methyl-1H-pyrazol-5-yl)-8-methoxy-9H-pyrimido[4,5-b]indole-6-carboxamide; formic acid]
